Experimental data from patent publication US20240238417A1, “METHODS OF PRODUCING TUMOR VACCINES AND USES THEREOF” (priority 2021, published 2024).

Columns and labels:
CT26 tumor = assay: Local gNO treatment of CT26 tumor bearing mice, primary tumor; type: in vivo
Description: Mice: All in vivo experimental procedures were carried out in accordance with the protocol approved by the Ethics Committee on the Use and Care of Animals. Institutional Animal Care and Use Committee (IACUC): 67-09-2019 and IL-20-3-149. The in vivo assays were performed on Balb/c or C57BU6J mice: 7-10 weeks of age, obtained from Envigo (Ness-Ziona, Israel), unless otherwise indicated.
Inoculation of tumor cells: Cancer cell suspensions at a concentration of 2.5-10.0×10^6 cells/ml were inoculated to the right flank of mice at a dose volume of 0.1 ml. Administration was performed as soon as possible following cell suspension preparation and after manual shaking prior to inoculation. The cell suspension was then aspirated into a 1-ml syringe with a 27G needle for subcutaneous (s.c.) injection.
Test article treatment: Mice were first anesthetized by an intraperitoneal (i.p) injection of 100 mg/kg ketamine and 20 mg/kg xylazine hydrochloride solution. After 10 minutes, tumor-bearing mice were treated with the indicated dose of gNO.
In all protocols, the gas was delivered from NO in N2 cylinders. The outlet pressure was set to 2-3.5 bar using a pressure regulator that was connected directly to the cylinder.
In protocols that involve administration by needle injection, a silicone hose was connected directly to the pressure regulator on one end and to a manual or digital MFC on the other end. The flow was adjusted to 0.05 LPM-0.25 LPM. An additional silicone hose was connected to the flow controller as well as to a 23G hypodermic needle. The needle was inserted horizontally into the center of each tumor.
Tumor volume calculation: Local tumor growth was determined by measuring 3 mutually orthogonal tumor dimensions 2-3 times per week, according to the following formula:
or Tumor volume=Diameter 1× Diameter 2^2/2, unless otherwise indicated. Diameter 1 represents length, Diameter 2 represents width and Diameter 3 represents height.
BALB/c female and male mice were obtained from Almog Diagnostic that purchased them from Envigo, Israel. The mice were 7-8 weeks of age. Animal care and experimentation were performed in accordance with the Bar-Ilan University guidelines.
CT-26, a colon carcinoma cell line was induced in a BALB/c mouse by chemical carcinogenesis.
Cells were cultured in Roswell Park Memorial Institute (RPMI) 1640 supplemented with 100 U/ml penicillin, 100 μg/ml streptomycin, 2 mM L-glutamine; 1 mM sodium pyruvate; 1% non-essential amino acid solution; 10% fetal calf serum. Cultures were maintained at 37° C. in a humidified incubator with a 5% CO2 atmosphere.
Mice were inoculated subcutaneously with 5×10^5 CT-26 cells suspended in 100 μL Hank's Balanced Salt Solution (HBSS) into the low lateral side of the back. Local tumor growth was determined by measuring two mutually orthogonal tumor diameters with a caliper. The volume of the tumor was calculated using the formula: Vol=D1×D2×D2/2, where D1, D2 are two mutually orthogonal tumor diameters.
Air-1 is a female Balb/c mouse that was treated twice. On day 0 the tumor volume was 64.85 mm^3.
NO-1 is a female Balb/c mouse and was treated once. […] Then, the skin was removed from the tumor, and the tumor was re-exposed to gNO via a perforated flask filled with gNO using the same parameters.
NO-2 is a male Balb/c mouse and was treated 3 times. On day 0 the tumor volume was 38.51 mm^3. Day 0—gNO at 50,000 ppm was administered for 3.8 minutes at a flow rate of 0.9 using a cap. Day 5: gNO at 10,000 ppm was administered for 30 minutes using a cap. Then, gNO was delivered intra-tumorally by a 23G needle such as shown in FIG. 11B at 0.3 LPM for another 10 minutes, using an intra-tumoral channel. The tip of the needle was directed at the outside area. Day 11: gNO at 10,000 ppm was delivered to the tumor for 5 minutes and at a flow rate of 0.3 LPM, using a 23G needle and an intra-tumoral channel.
In an additional set of experiments, aluminum disposable gas cylinders were used. […]

LLC1 cells = assay: Annexin V-Propidium Iodide apoptosis-necrosis assay of LLC1 cells; type: cell-based; settings: 20,000 ppm or 50,000 ppm gNO for 3 minutes, overnight incubation
Description: Immediately after gas exposure, cell culture medium was added, and the cells were incubated at a 37° C. and 5% CO2 incubator over-night. To test cell viability, XTT assay and Annexin V-Propidium Iodide assays were performed, according to known protocols.
In an additional set of experiments, the plates were exposed to the gas (at 20,000 ppm or 50,000 ppm) by filling the chamber with gNO for 3 minutes. After exposure, the plates were placed in a 5% CO2, 37° C. incubator for an overnight incubation and the viability of the cells was tested via Annexin V—Propidium Iodide apoptosis-necrosis assay.

CT-26 cells = assay: XTT viability of CT-26 cells after direct gas exposure in 96-well plate; type: cell-based; settings: Mus musculus, CT26; 50,000 ppm gNO for 10, 60, or 180 seconds; XTT after 24 hours
Source text: Tumor celllines: The mouse colon carcinoma cell line, CT26WT, was cloned from CT26, an N-nitroso-N-methylurethane-induced, undifferentiated colon carcinoma cell line. The mouse mammary tumor cell line, 4T1, is a 6-thioguanine resistant cell line. When injected into BALB/c mice, 4T1 spontaneously produces highly metastatic tumors that can metastasize to the lung, liver, lymph nodes and brain while the primary tumor is growing in situ. […] Panc 02.03 is a pancreatic adenocarcinoma epithelial cell line derived in 1995 from a primary tumor removed from the head-of-the-pancreas of […] with pancreatic adenocarcinoma. CT26, 4T1 and Panc 02.03 cell lines were grown in RPMI based media (ATCC 30-2001) supplemented with fetal bovine serum and pen-strep (both from Biological Industries). The LLC1/LU2 cell line was grown in DMEM based media (ATCC 30-2002) supplemented with fetal bovine serum and pen-strep (Biological industries). The B16.F10 cell lines was grown in DMEM based media (ATCC 30-2002) supplemented with fetal bovine serum and pen-strep (Biologicalindustries).
In vitro systems: One system involves a direct exposure of cancer cells to gNO in 96-well plate. Gaseous NO at 150 ppm-50,000 ppm was delivered at 0.3 LPM for 10 seconds—3 minutes. In another system, cancer cells were exposed to gNO in a box made of acrylic glass. […]

[N]=O [gNO, nitric oxide]
CT-26 tumor destruction (CT26 tumor; 10,000 ppm gNO, 0.9 LPM, 20 minutes in flask, 1-17 days post treatment): 100%
tumor on photographs after treatment (CT26 tumor; 10,000 ppm gNO, 0.9 LPM, 20 minutes in flask, 1 minute, 9 days and 14 days post treatment): the tumor was destructed
cured mice (CT26 tumor; 25,000 ppm gNO intra-tumoral 15 minutes, 0.25 LPM, repeated a week later, 44 days post the first treatment): 50%
mice with CT-26 tumor growth inhibition compared to air treatment (CT26 tumor; 50,000 ppm intra-tumoral 2-3 minutes 0.2 LPM, then 10,000 ppm 6 minutes intra-tumoral and 4 minutes to outer layer): ⅔
tumor on photographs after treatment (CT26 tumor; 200,000 ppm gNO for 2 seconds, 0.01 LPM, 9 days after treatment): the tumor disappeared
size of air-treated tumor relative to gNO-treated tumors (CT26 tumor; CT26 tumors, 10,000-50,000 ppm gNO (mice NO-1, NO-2), 12 days post treatment 1): more than 30 times
LLC1 cells at late apoptosis (LLC1 cells): 80%-90%
viability at 50000 ppm (CT-26 cells): ~1%
